Laboratory results as given in patent US9919978B2, “Selenium-doped nano silica sol used for producing selenium-enriched rice and capable of suppressing absorption and accumulation of heavy metals in paddy rice and preparation method therefor” (GUANGDONG INSTITUTE OF ECO-ENV[…] & TECHNOLOGY, priority 2013, dated 2018).

Test system: rice
Experiment: Pot experiment: foliar application on rice grown in arsenic-contaminated soil (Example 4)
Format: in vivo, rice (variety Youyou 128)
Description: The pot experiment for showing the effects of relieving the heavy metal poison in rice by foliar application of the selenium-doped nano-silica sol.
The soils to be tested were collected from an arsenic-contaminated rice field, in Yanhong Town, Chenghai District, Shantou City, Guangdong Province, China, the surface layer of the cultivated soils (0-10 cm) in the rice field was taken as the soil, air-dried and sieved, 10 kg of the soil were weighed and filled into barrels, wherein the basic physical and chemical properties of the soil were as follows: pH 6.12, organic matter 2.73%, total nitrogen 1.5 g/kg, total phosphorus 1.02 g/kg, total potassium 11.3 g/kg, CEC 8.75 cmol/kg, total arsenic 93.6 mg/kg, and total selenium 0.879 mg/kg.
Cultivation and treatment of rice: the rice variety was Youyou 128, the rice seed surface was disinfected for 15 minutes with 5% sodium hypochlorite solution, after washing with tap water, germination and seedling were carried out, then the uniform young seedlings were selected and transplanted. […] Each of the treatments was repeated four times, and the rices were harvested after they were matured. The dry weight of rice per pot was weighed, and the arsenic and selenium contents in rice were analyzed.

O=[Se]([O-])[O-].[Na+].[Na+] [1% Se, sodium selenite]
selenium content in rice relative to that after the selenium-doped nano-silica sol with 1% selenium (foliar application): 66% | dry weight of rice grain reduced as compared with the control (foliar application at tillering stage, diluted 100-fold, arsenic-contaminated soil): 13.1% | selenium content in rice (foliar application, diluted 100-fold, control 0.050 mg/kg): 0.180 mg/kg | reduction of arsenic content in rice as compared with the control (foliar application, diluted 100-fold, soil total arsenic 93.6 mg/kg): 19%
